Assay results published in patent US9751851B2, “Molecules and compositions that inhibit gram negative bacteria and their uses” (THE TRUSTEES OF PRINCETON UNIVERSITY, priority 2013, dated 2017).
pIC50: −log10 of the molar value.

Assays:
[1] = tested on: P. aeruginosa PA14; test: Microfluidic flow cell clogging (time until clogging); assay type: cell-based; details: wild-type P. aeruginosa PA14, 100 μM mBTL
Description: Microfluidic Flow Cells. Methods. Overnight P. aeruginosa PA14 cultures were back-diluted 1:1000 into 800 mL of tryptone broth (1% tryptone in H2O) with or without 100 μM mBTL and grown to mid-logarithmic phase (OD600=0.5). These cultures were used to fill 100 mL reservoirs that fed into microfluidic flow channels via Tygon tubing with an inner diameter of 2.4 mm. Similar tubing connected the outlet of the microfluidic channel to a collection dish on an analytical balance controlled via LabVIEW. The elevation of the culture reservoir above the collection dish on the balance set the constant pressure difference that drove the flow through the microfluidic channel. The microfluidic channel is 200 μm wide, 90 μm high, and contains a sequence of 37 bends that mimic corners in porous materials. The weight of the effluent culture was measured as a function of time t with measurement intervals of 4 s, and the data were converted into a flow rate Q(t) via the equation
[formula] where Δt=30 s and the density is assumed to be that of water, 1 kg/L. To the resulting flow rate time series Q(t), the function
[formula] was fitted which yields the measurement of the time until clogging (corresponding to the time at which the flow rate declined to 50% of its baseline value Q0).

[2] = molecular target: T1, RhlR (Pseudomonas aeruginosa, UniProt P54292); test: RhlR-GFP assay (rhlA-gfp reporter in recombinant E. coli); assay type: cell-based, P. aeruginosa
T1 construct: expressed in transfected cells; host or cells: E. coli BL21-Gold (DE3) carrying pET23b-rhlR
T1 sequence (P54292 whole entry): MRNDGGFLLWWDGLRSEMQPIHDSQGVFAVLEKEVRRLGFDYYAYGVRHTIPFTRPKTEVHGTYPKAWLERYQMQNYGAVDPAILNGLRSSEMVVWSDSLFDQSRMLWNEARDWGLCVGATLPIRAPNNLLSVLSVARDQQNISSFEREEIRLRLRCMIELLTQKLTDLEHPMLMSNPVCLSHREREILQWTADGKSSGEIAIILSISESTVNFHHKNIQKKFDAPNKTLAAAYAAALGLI
Description: (§1) Methods. The LasR-GFP assays were performed in E. coli strain BL21 DE3 Gold (Agilent) carrying pET23b (Novagen) containing lasR (maintained with 100 μg/mL ampicillin) and carrying plasmid pEVS141 (31) containing the rsaL promoter driving expression of gfp (maintained with […] of kanamycin.) The RhlR-GFP assays were performed in E. coli strain BL21 DE3 Gold (Agilent) carrying pET23b (Novagen) containing rhlR (maintained with 100 μg/mL ampicillin) and carrying plasmid pEVS141 containing the rhlA promoter driving expression of gfp (maintained with 50 μg/mL of kanamycin.) These E. coli strains were grown overnight and subcultured into fresh medium with appropriate antibiotics at a 1:100 dilution and grown shaking for 8 hr at 37° C. for the LasR-GFP strain and 12 hr for the RhlR-GFP construct. 50 nM 3OC12-HSL or 20 μM C4-HSL was added to the LasR-GFP and RhlR-GFP preparations, respectively. Compounds were tested at 1 mM for antagonism and at 100 nM or 20 μM for agonism. These concentrations were chosen for agonism studies to match the concentrations of autoinducers used in the experiments. For antagonism studies, the EC95 concentration was used for each receptor. GFP was measured on an Envision plate reader.
(§2) The LasR-GFP assays were performed in E. coli strain BL21 DE3 Gold (Agilent) carrying pET23b (Novagen) containing lasR (maintained with 100 μg/mL ampicillin) and carrying plasmid pEVS141 (31) containing the rsaL promoter driving expression of gfp (maintained with 50 μg/mL of kanamycin.) The RhlR-GFP assays were performed in E. coli strain BL21 DE3 Gold (Agilent) carrying pET23b (Novagen) containing rhlR (maintained with 100 μg/mL ampicillin) and carrying plasmid pEVS141 (31) containing the rhlA promoter driving expression of gfp (maintained with 50 μg/mL of kanamycin.) These E. coli strains were grown overnight and subcultured into fresh medium with appropriate antibiotics at a 1:100 dilution and grown shaking for 8 hr at 37° C. for the LasR-GFP strain and 12 hr for the RhlR-GFP construct. 50 nM 3OC12-HSL or 20 μM C4-HSL was added to the LasR-GFP and RhlR-GFP preparations, respectively. Compounds were tested at 1 mM for antagonism and at 100 nM or 20 μM for agonism. These concentrations were chosen for agonism studies to match the concentrations of autoinducers used in our experiments. For antagonism studies, we used the EC95 concentration for each receptor. GFP was measured on an Envision plate reader.

[3] = tested on: wild-type P. aeruginosa PA14; test: microbe, parasite or virus in culture; assay type: cell-based
In short: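 PA14 cultures diluted 1:1000, grown aerobically 17 h at 37° C with shaking with compound at 100 μM (end point) or 200 nM–200 μM (titration). Pyocyanin in filtered cell-free fluid read at 695 nm; efficacy 0% at WT level, 100% at medium background; IC50 from variable-slope sigmoidal fit.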

[4] = tested on: P. aeruginosa PA14; test: Static culture biofilm thickness by confocal microscopy; assay type: cell-based
Description: Static culture. Methods. Overnight P. aeruginosa cultures were back-diluted 1:1000 into tryptone broth with 100 μM mBTL, or an equivalent concentration of DMSO, and grown to mid-logarithmic phase (OD600=0.5). A 96-well plate with glass bottom (Thermo Fisher), which was filled with 200 μL of tryptone broth containing 100 μM mBTL or DMSO, was then inoculated with 2 μL of the mid-logarithmic culture. The 96-well plates were incubated for 24 h, prior to adding 5 μM SYTO 9 nucleic acid stain (Invitrogen). Biofilm thickness was measured using confocal microscopy (Nikon).

[5] = molecular target: T2, LasR (Pseudomonas aeruginosa, UniProt P25084); test: LasR-GFP assay (rsaL-gfp reporter in recombinant E. coli); assay type: cell-based, P. aeruginosa
T2 construct: expressed in transfected cells; host or cells: E. coli BL21-Gold (DE3) carrying pET23b-lasR
T2 sequence (P25084 whole entry): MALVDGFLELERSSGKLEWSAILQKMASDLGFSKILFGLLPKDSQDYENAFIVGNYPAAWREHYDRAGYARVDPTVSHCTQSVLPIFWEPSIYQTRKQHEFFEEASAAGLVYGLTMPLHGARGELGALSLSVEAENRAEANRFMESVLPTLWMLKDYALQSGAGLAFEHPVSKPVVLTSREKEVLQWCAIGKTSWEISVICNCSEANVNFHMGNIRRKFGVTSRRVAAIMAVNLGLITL
Description: as §1, §2

meta-bromothiolactone [mBTL] was tested, and the “clogging of microfluidic chambers” value [1] was “phenotype indistinguishable from the mutants”, the “inhibition of RhlR activation of rhlA-gfp (antagonism)” value ([2]; mBTL at 1 mM, C4-HSL at EC95 (20 μM)) was 43% and the “RhlR partial agonism (gfp expression, cognate autoinducer = 100%)” value ([2]; no autoinducer, compound at 20 μM) was 80%. For the same substance, the pIC50 ([3]; WT P. aeruginosa PA14, 17 hr growth, titration, read-out: IC50 for inhibition of pyocyanin production) was 5.10, the “inhibition of pyocyanin production (in words)” value ([3]; wild-type P. aeruginosa PA14, end point assays at 100 μM) was “potent inhibition of pyocyanin” and the average biofilm height ([4]; lasR null strain, 100 μM mBTL (untreated 15.7+/−4.9)) was 6.6+/−2.3 μm. For the same substance, the average biofilm height ([4]; lasR, rhlR double null strain, 100 μM mBTL (untreated 11.9+/−5.5)) was 16.2+/−5.9 μm, the average biofilm height ([4]; rhlR null strain, 100 μM mBTL (untreated 25+/−10.6)) was 22.1+/−7.5 μm and the average biofilm height ([4]; wild-type, 100 μM mBTL, 24 h (untreated 27.5+/−11.5)) was 10+/−4 μm. The “inhibition of LasR activation of rsaL-gfp (antagonism)” value ([5]; mBTL at 1 mM, 3OC12-HSL at EC95) was 22% and the “LasR partial agonism (gfp expression, cognate autoinducer = 100%)” value ([5]; no autoinducer, compound at 100 nM) was 72%.
